pIC50: −log10 of the molar value. Structures can show the parent of a compound that is named as a salt. Where two headings read alike, the source gives them in different places.
Target: T1, recombinant human BACE-1 (Homo sapiens, UniProt P56817)
T1 construct: purchased R & D Systems
Assay: BACE-1 FRET peptide cleavage assay
Assay type: biochemical
Settings: FRET peptide with Swedish variant, 20 mM sodium acetate, 0.1% Triton-X-100, pH 4.5, 2 h, 25° C., triplicate; for IC50: read-out: IC50 (μg/ml), inhibitory activity for cleavage of FRET peptide by BACE-1 (converted); for pIC50: read-out: IC50 (μmol), inhibitory activity for cleavage of FRET peptide by BACE-1
Procedure: The ability of the HS oligosaccharides to inhibit BACE-1 cleavage of APP was assessed using a fluorescent resonance energy transfer (FRET) peptide cleavage assay employing the Swedish amino acid variant FRET peptide 5-FAM-Glu-Val-Asn-Leu-Asp-Ala-Phe-Lys(QXL520)-OH. When intact, the amino terminal fluorophore is quenched, but upon enzymatic cleavage, it is released from quencher and fluoresces at 520 nm.
BACE inhibition assays: The ability of the compounds to inhibit BACE-1 cleavage of APP was assessed using a fluorescent resonance energy transfer (FRET) peptide cleavage assay employing the FRET peptide HiLyteFluor™488-Glu-Val-Asn-Leu-Asp-Ala-Glu-Phe-Lys(QXL520)-OH (Anaspec Inc, San Jose, Calif.), containing the Swedish amino acid variant. Assays were performed in triplicate in 96-well black plates (Greiner Bio-One Ltd) in a total volume of 100 μl of 20 mM sodium acetate, 0.1% Triton-X-100, pH 4.5 using 114 pmoles FRET peptide/well and 0.1 μg of recombinant human BACE-1 (R & D Systems; specific activity >3.5 pmol/min/μg). Inhibitors were added at 0.01 to 50 μg/mL and mixed with enzyme prior to addition of substrate. Appropriate controls for enzyme activity and background fluorescence were employed and plates were incubated (2 h, 25° C.) with reaction stopped by addition of 100 μl 2.5 M sodium acetate. Fluorescence 480ex/520em was measured on a Polarstar plate reader (BMG LabTechnologies, U.K.) and data were analyzed by plotting log concentration of inhibitor against percent inhibition and using a logistic sigmoidal curve fitting function using OriginPro 8 software (OriginLab Corporation, MA).

T1 sequence (P56817 46-501): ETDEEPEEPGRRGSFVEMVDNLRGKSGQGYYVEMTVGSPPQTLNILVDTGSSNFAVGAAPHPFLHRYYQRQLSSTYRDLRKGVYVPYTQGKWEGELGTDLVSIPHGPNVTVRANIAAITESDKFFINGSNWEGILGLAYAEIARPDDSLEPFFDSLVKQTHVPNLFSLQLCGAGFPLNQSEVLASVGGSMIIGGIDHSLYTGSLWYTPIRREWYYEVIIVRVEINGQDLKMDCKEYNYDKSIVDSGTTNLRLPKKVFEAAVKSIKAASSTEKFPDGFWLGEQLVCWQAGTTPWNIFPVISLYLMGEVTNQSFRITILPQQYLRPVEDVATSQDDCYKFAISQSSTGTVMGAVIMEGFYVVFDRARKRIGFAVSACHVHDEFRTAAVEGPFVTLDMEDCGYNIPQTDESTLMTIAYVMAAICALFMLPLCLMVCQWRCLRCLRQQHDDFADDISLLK

IC50 | pIC50 | SMILES
38.2 µM | 4.46 | CC(=O)NC1C(OC2C(C(=O)O)OC(OC3C(COS(=O)(=O)O)OC(OCCCCCN)C(NC(C)=O)C3O)C(O)C2O)OC(COS(=O)(=O)O)C(OC2OC(C(=O)O)C(O)C(O)C2O)C1O [Compound 76, 5-aminopentyl [(β-D-glucopyranosyluronate)-(1→4)-(2-acetamido-2-deoxy-6-O-sulfanate-α-D-glucopyranoside)-(1→4)-O-(β-D-glucopyranosyluronate-(1→4)-O-2-acetamido-2-deoxy-6-O-sulfanate-α-D-glucopyranosidetetrasodium salt]
40.1 µM | 4.44 | NCCCCCOC1OC(COS(=O)(=O)O)C(OC2OC(C(=O)O)C(OC3OC(COS(=O)(=O)O)C(OC4OC(C(=O)O)C(OC5OC(COS(=O)(=O)O)C(OC6OC(C(=O)O)C(O)C(O)C6O)C(O)C5NS(=O)(=O)O)C(O)C4O)C(O)C3NS(=O)(=O)O)C(O)C2O)C(O)C1NS(=O)(=O)O [Compound 69, 5-aminopentyl [(β-D-glucopyranosyluronate)-(1→4)-(2-deoxy-2-sulfoamino-6-O-sulfonato-α-D-glucopyranoside)-(1→4)-O-(α-L-idopyranosyluronate)-(1→4)-O-(2-deoxy-2-sulfoamino-6-O-sulfanate-α-D-glucopyranoside)-(1→4)-(β-D-glucopyranosyluronate)]-(1→4)-O-2-deoxy-N-sulfoamino-6-O-sulfonate-α-D-glucopyranoside nonasodium salt]
152 µM | 3.86 | CC(=O)NC1C(OC2C(C(=O)O)OC(OC3C(COS(=O)(=O)O)OC(OCCCCCN)C(NC(C)=O)C3O)C(OS(=O)(=O)O)C2O)OC(COS(=O)(=O)O)C(OC2OC(C(=O)O)C(O)C(O)C2O)C1O [Compound 85, 5-Aminopentyl [((3-D-glucopyranosyluronate)-(1→4)-O-(2-acetamido-2-deoxy-6-O-sulfonato-α-D-glucopyranoside)-(1→4)-O-(2-O-sulfonato-α-L-idopyranosyluronate)]-(1→4)-2-deoxy-2-acetamido-6-O-sulfonate-α-D-glucopyranosidepentasodium salt]
34.2 µM | 4.49 | CC(=O)NC1C(OC2C(C(=O)O)OC(OC3C(COS(=O)(=O)O)OC(OCCCCCN)C(NC(C)=O)C3O)C(O)C2O)OC(COS(=O)(=O)O)C(OC2OC(C(=O)O)C(O)C(O)C2O)C1O [Compound 82, 5-aminopentyl [(α-L-idopyranosyluronate)-(1→4)-(2-acetamido-2-deoxy-6-O-sulfonate-α-D-glucopyranoside)-(1→4)-O-(α-L-idopyranosyluronate-(1→4)-O-2-acetamido-2-deoxy-6-O-sulfonate-α-D-glucopyranosidetetrasodium salt]
> 272 µM |  | CC(=O)NC1C(OC2C(C(=O)O)OC(OC3C(COS(=O)(=O)O)OC(OCCCCCN)C(NC(C)=O)C3O)C(OS(=O)(=O)O)C2O)OC(COS(=O)(=O)O)C(OC2OC(C(=O)O)C(O)C(O)C2O)C1O [Compound 84, 5-Aminopentyl [(α-L-idopyranosyluronate)-(1→4)-O-(2-acetamido-2-deoxy-6-O-sulfonate-α-D-glucopyranoside)-(1→4)-O-(2-O-sulfonato-α-L-idopyranosyl-uronate)]-(1→4)-2-deoxy-2-acetamido-6-O-sulfonate-α-D-glucopyranoside penta sodium salt]
> 294 µM |  | CC(=O)NC1C(OC2C(C(=O)O)OC(OC3C(COS(=O)(=O)O)OC(OCCCCCN)C(NC(C)=O)C3O)C(O)C2O)OC(COS(=O)(=O)O)C(OC2OC(C(=O)O)C(O)C(O)C2O)C1O [Compound 78, 5-Aminopentyl[β-D-glucopyranosyluronate-(1→4)-(2-acetamido-2-deoxy-6-O-sulfonate-α-D-glucopyranoside)-(1→4)-α-L-idopyranosyluronate)]-(1→4)-2-acetamido-2-deoxy-6-O-sulfonate-α-D-glucopyranoside tetrasodium salt]
102 µM | 4.03 | CC(=O)NC1C(OC2C(C(=O)O)OC(OC3C(COS(=O)(=O)O)OC(OCCCCCN)C(NC(C)=O)C3O)C(O)C2O)OC(COS(=O)(=O)O)C(OC2OC(C(=O)O)C(O)C(O)C2O)C1O [Compound 80, 5-aminopentyl [(α-L-idopyranosyluronate)-(1→4)-O-(2-acetamido-2-deoxy-6-O-sulfonate-α-D-glucopyranoside)-(1→4)-O-(β-D-glucopyranosyluronate)]-(1→4)-(2-acetamido-2-deoxy-6-O-sulfonate-α-D-glucopyranosidetetrasodium salt]
> 255 µM |  | NCCCCCOC1OC(COS(=O)(=O)O)C(OC2OC(C(=O)O)C(OC3OC(COS(=O)(=O)O)C(OC4OC(C(=O)O)C(O)C(O)C4O)C(O)C3NS(=O)(=O)O)C(O)C2OS(=O)(=O)O)C(O)C1NS(=O)(=O)O [Compound 86, 5-Aminopentyl [(β-D-glucopyranosyluronate)-(1→4)-O-(2-deoxy-2-sulfamino-6-O-sulfonate-α-D-glucopyranoside)-(1→4)-O-(2-O-sulfonate-α-L-idopyranosyluronate)-(1→4)-2-deoxy-2-sulfoamino-6-O-sulfonate-α-D-glucopyranosideheptasodium salt]
